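48-hour exposure; five concentrations; linearly interpolated endpoints. Here, GI50 denotes the concentration required for 50% inhibition of growth.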 Active and inactive are the calls of the source. Rule as the data show it: active = GI50 up to about 1.1 µM and inactive = higher.

Some test systems named below: EKVX; OVCAR-8; SK-MEL-28; PC-3; OVCAR-3; Malme-3M; OVCAR-5; NCI-H460; NCI-H226; MDA-MB-435; HOP-62; U-251; LOX IMVI; TK-10; SNB-75; HT-29; MDA-N; ACHN; A549; HOP-92.
Assay in all cases: DTP human tumour cell line panel, 48 h

For `O=C(O)CC(NC(=O)Nc1ccc([N+](=O)[O-])cc1)C(=O)Nc1ccc([N+](=O)[O-])cc1` (stereo not given), the GI50 with EKVX, in the experiment on OVCAR-8, with SK-MEL-28, in the experiment on PC-3, in the experiment on OVCAR-3 and in the experiment with Malme-3M was > 100 µM (inactive) in each case. The GI50 with OVCAR-5, with NCI-H460, with NCI-H226, in the experiment on MDA-MB-435, with HOP-62 and in the experiment on U-251 was > 100 µM (inactive) in each case. Besides, the GI50 with LOX IMVI, in the experiment with TK-10, with SNB-75, in the experiment on HT-29, with MDA-N and in the experiment on ACHN was > 100 µM (inactive) each time. In addition, in the experiment with A549, the GI50 (usually the concentration that inhibits growth by half) is > 100 µM (inactive).
`c1cc(-c2ccsc2-c2ccsc2)cs1`: the GI50 in the experiment with EKVX was > 100 µM (inactive); in the experiment with OVCAR-8 it was > 100 µM (inactive); in the experiment with SK-MEL-28, > 100 µM (inactive); with PC-3, > 100 µM (inactive); in the experiment with OVCAR-3 it was 23.8 µM (inactive); with Malme-3M, 26.9 µM (inactive). Also, the GI50 in the experiment on OVCAR-5 was > 100 µM (inactive); in the experiment on NCI-H460, > 100 µM (inactive); in the experiment on MDA-MB-435, 36.6 µM (inactive); in the experiment with HOP-62, 77.3 µM (inactive); in the experiment on U-251, > 100 µM (inactive); with LOX IMVI, 55.3 µM (inactive). In addition, the GI50 was > 100 µM (inactive) in the experiment on TK-10; 44.5 µM (inactive) in the experiment on SNB-75; > 100 µM (inactive) with HT-29; 41.3 µM (inactive) in the experiment with MDA-N; > 100 µM (inactive) with ACHN; > 92.3 µM (inactive) in the experiment on HOP-92. Besides, in the experiment on A549, the GI50 was 46.3 µM (inactive).
As to `O=C(O)c1ccc(Nc2nc3cc(C(F)(F)F)ccc3nc2C(=O)O)cc1`, the GI50 in the experiment with EKVX, in the experiment with OVCAR-8, in the experiment on SK-MEL-28, in the experiment with PC-3, in the experiment on OVCAR-3 and in the experiment with Malme-3M was > 100 µM (inactive) in each case. Further, the GI50 with OVCAR-5, in the experiment on NCI-H460, with NCI-H226, in the experiment with MDA-MB-435, with HOP-62 and in the experiment on U-251 was > 100 µM (inactive) in each case. Moreover, the GI50 in the experiment on LOX IMVI, in the experiment with SNB-75, with HT-29, in the experiment on MDA-N and in the experiment on ACHN was > 100 µM (inactive) throughout.
`COC(=O)C1(C)CCCC2(C)c3cc(OC)ccc3C(=O)C(Br)C12` (stereo not given): the GI50 is > 10 µM (inactive) with EKVX; 1.99 µM (inactive) in the experiment on OVCAR-8; > 10 µM (inactive) with SK-MEL-28; 9.73 µM (inactive) in the experiment on PC-3; 5.35 µM (inactive) in the experiment with OVCAR-3; 2.72 µM (inactive) with Malme-3M. The GI50 was 8.02 µM (inactive) with OVCAR-5; > 10 µM (inactive) in the experiment on NCI-H460; > 10 µM (inactive) in the experiment with NCI-H226; 4.19 µM (inactive) with MDA-MB-435; > 10 µM (inactive) in the experiment with HOP-62; > 10 µM (inactive) with U-251. Besides, the GI50 was > 10 µM (inactive) in the experiment with LOX IMVI; > 10 µM (inactive) with TK-10; 4.75 µM (inactive) with HT-29; 3.81 µM (inactive) in the experiment on MDA-N; > 10 µM (inactive) in the experiment with HOP-92; > 10 µM (inactive) in the experiment on A549.
As for `O=C(Nc1cc(C(=O)Nc2cccc(S(=O)(=O)O)c2)cc(C(=O)Nc2cccc(S(=O)(=O)O)c2)c1)c1cccc(C(=O)Nc2cc(C(=O)Nc3cccc(S(=O)(=O)O)c3)cc(C(=O)Nc3cccc(S(=O)(=O)O)c3)c2)c1`, the GI50 in the experiment on EKVX, in the experiment on OVCAR-8, with SK-MEL-28, in the experiment on PC-3, in the experiment on OVCAR-3 and in the experiment with Malme-3M was > 100 µM (inactive) in each case. Moreover, the GI50 in the experiment with OVCAR-5, in the experiment on NCI-H460, in the experiment on NCI-H226, with MDA-MB-435, in the experiment on HOP-62 and in the experiment with U-251 was > 100 µM (inactive) each time. Moreover, the GI50 in the experiment on LOX IMVI, in the experiment with TK-10, in the experiment with SNB-75, with HT-29, with MDA-N and in the experiment on ACHN was > 100 µM (inactive) throughout. In the experiment with A549, the GI50 is > 100 µM (inactive).
Regarding `COc1cc(OC)c2c(=O)c(OC)c(-c3ccc4c(c3)OCO4)oc2c1`, the GI50 in the experiment on EKVX was 41.7 µM (inactive); with OVCAR-8 it was 28.6 µM (inactive); in the experiment with SK-MEL-28, > 100 µM (inactive); in the experiment on PC-3, 84.7 µM (inactive); in the experiment with OVCAR-3, > 100 µM (inactive); with Malme-3M, > 100 µM (inactive). Moreover, the GI50 with OVCAR-5 is > 100 µM (inactive); in the experiment on NCI-H460, > 100 µM (inactive); with NCI-H226, 46.3 µM (inactive); in the experiment with MDA-MB-435, > 100 µM (inactive); in the experiment on HOP-62, 23.5 µM (inactive); with U-251, 16.6 µM (inactive). Moreover, the GI50 with LOX IMVI is 15.8 µM (inactive); in the experiment on TK-10, 45 µM (inactive); in the experiment with SNB-75, 15.9 µM (inactive); in the experiment with HT-29, > 100 µM (inactive); in the experiment with MDA-N, > 100 µM (inactive); with ACHN, 33.6 µM (inactive). In addition, the GI50 with A549 is > 100 µM (inactive).
For `CC(=O)N1C(=O)/C(=C\C(=O)c2ccc([N+](=O)[O-])cc2)c2ccccc21`, the GI50 with EKVX was 19.6 µM (inactive); with OVCAR-8, 47.5 µM (inactive); with PC-3 it was 21.8 µM (inactive); in the experiment with OVCAR-3, 16.7 µM (inactive); with Malme-3M, 20.7 µM (inactive); in the experiment with OVCAR-5, 54.2 µM (inactive). The GI50 in the experiment on NCI-H460 is 20.1 µM (inactive); in the experiment with NCI-H226, > 100 µM (inactive); in the experiment with MDA-MB-435, 25.6 µM (inactive); in the experiment on HOP-62 it was 36.4 µM (inactive); in the experiment with U-251, 21.1 µM (inactive); in the experiment on TK-10 it was 13.1 µM (inactive). For the same molecule, the GI50 in the experiment on SNB-75 is 21.9 µM (inactive); in the experiment with HT-29, 17.8 µM (inactive); in the experiment with MDA-N it was 18.8 µM (inactive); with ACHN it was 15.3 µM (inactive); in the experiment on A549, > 100 µM (inactive).
For the molecule `O=C(O)CNC(=O)C(CSC(=O)OCC1c2ccccc2-c2ccccc21)NC(=O)CCC(NC(=O)OCC1c2ccccc2-c2ccccc21)C(=O)O` (stereo not given), the GI50 was 17.8 µM (inactive) in the experiment on EKVX; 16.4 µM (inactive) in the experiment on OVCAR-8; > 100 µM (inactive) with SK-MEL-28; 15.5 µM (inactive) with PC-3; > 100 µM (inactive) in the experiment with OVCAR-3; 20.7 µM (inactive) with Malme-3M. Moreover, the GI50 with OVCAR-5 was > 100 µM (inactive); in the experiment with NCI-H460, 18.6 µM (inactive); with NCI-H226, 38.8 µM (inactive); with MDA-MB-435, 18.9 µM (inactive); in the experiment with HOP-62, 14.2 µM (inactive); with LOX IMVI it was 0.0259 µM (active). The GI50 in the experiment on TK-10 is 22.2 µM (inactive); in the experiment with MDA-N, 28.1 µM (inactive); in the experiment on ACHN it was 18.4 µM (inactive); in the experiment with HOP-92, 21.7 µM (inactive); in the experiment with A549 it was 14.3 µM (inactive).

(Values after ChEMBL document CHEMBL1201862, “PubChem BioAssay data set” (2004).)
